Among the data in patent publication US8349824B2, “Triazolopyridine compounds” (Hoffmann-La Roche Inc., priority 2010, dated 2013) are IC50 and melting point values, retold here.

The structures appear in SMILES notation.

Data set [1] has as its target T1, human PDE10A full length (Homo sapiens, UniProt Q9Y233).
T1 construct: purchased Enzo Life Science, Lausen, Switzerland SE-534
In words: PDE10A Scintillation Proximity Assay (SPA), human PDE10A full length assay. It counts as biochemical. To be noted: 50 nM cGMP + 50 nM [3H]-cGMP, 20 minutes at room temperature, read-out: PDE10A inhibition IC50. The method, then: The following test was carried out in order to determine the activity of the compounds of the present invention. PDE10 activity of the compounds of the present invention was determined using a Scintillation Proximity Assay (SPA)-based method similar to the one previously described (Fawcett, L. et al., Proc Natl Acad Sci USA (2000) 97(7):3702-3707).
The human PDE10A full length assay was performed in 96-well micro titer plates. The reaction mixture of 50 μl contained 20 mM HEPES pH=7.5/10 mM MgCl2/0.05 mg/ml BSA (Sigma cat. #A-7906), 50 nM cGMP (Sigma, cat. #G6129) and 50 nM [^3H]-cGMP (GE Healthcare, cat. #TRK392 S.A. 13.2Ci/mmol), 3.75 ng/well PDE10A enzyme (Enzo Life Science, Lausen, Switzerland cat #SE-534) with or without a specific test compound. A range of concentrations of the potential inhibitor was used to generate data for calculating the concentration of inhibitor resulting in 50% of the effect (e.g. IC50, the concentration of the competitor inhibiting PDE10A activity by 50%). Non-specific activity was tested without the enzyme. The reaction was initiated by the addition of the substrate solution (cGMP and [^3H]-cGMP) and allowed to progress for 20 minutes at room temperature. The reaction was terminated by adding 25 μl of YSi-SPA scintillation beads (GE Healthcare, cat. #RPNQ0150) in 18 mM zinc sulphate solution (stop reagent). After 1 h under shaking, the plate was centrifuged one minute at 170 g to allow beads to settle. Afterwards, radioactive counts were measured on a Perkin Elmer TopCount Scintillation plate reader.
(Scintillation proximity formats need no separation of bound from free tracer.)

T1 sequence (Q9Y233 1-779 isoform Q9Y233-1): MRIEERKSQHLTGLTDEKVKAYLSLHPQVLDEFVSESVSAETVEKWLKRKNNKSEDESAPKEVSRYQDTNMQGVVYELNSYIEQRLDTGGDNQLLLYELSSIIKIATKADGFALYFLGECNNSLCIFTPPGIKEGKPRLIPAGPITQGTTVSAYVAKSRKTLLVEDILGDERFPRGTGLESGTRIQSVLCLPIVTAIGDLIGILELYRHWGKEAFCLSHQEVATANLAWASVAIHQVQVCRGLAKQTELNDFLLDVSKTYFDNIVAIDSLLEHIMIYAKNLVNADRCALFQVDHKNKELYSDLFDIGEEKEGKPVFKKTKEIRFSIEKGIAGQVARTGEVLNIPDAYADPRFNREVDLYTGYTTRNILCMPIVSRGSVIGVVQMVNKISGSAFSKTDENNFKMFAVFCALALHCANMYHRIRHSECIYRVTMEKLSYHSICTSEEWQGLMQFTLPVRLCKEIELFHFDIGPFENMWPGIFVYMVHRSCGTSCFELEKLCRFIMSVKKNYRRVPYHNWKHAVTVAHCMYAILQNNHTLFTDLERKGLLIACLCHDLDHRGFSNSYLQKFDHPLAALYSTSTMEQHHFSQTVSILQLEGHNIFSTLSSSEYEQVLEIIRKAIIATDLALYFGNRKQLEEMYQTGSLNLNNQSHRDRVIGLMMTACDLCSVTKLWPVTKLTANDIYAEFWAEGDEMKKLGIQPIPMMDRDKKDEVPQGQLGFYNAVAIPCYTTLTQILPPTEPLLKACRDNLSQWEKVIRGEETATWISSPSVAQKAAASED

On to `Cn1ncc(C(=O)N2C[C@H]3C[C@@H]2CO3)c1C(=O)Nc1ccn2nc(-c3cccnc3)nc2c1` (stereo in doubt) [Example 57, 2-Methyl-4-((1R,4R)-2-oxa-5-aza-bicyclo[2.2.1]heptane-5-carbonyl)-2H-pyrazole-3-carboxylic acid (2-pyridin-3-yl-[1,2,4]triazolo[1,5-a]pyridin-7-yl)-amide], for which the melting point (commonly the temperature of the solid-liquid transition) fell in the range of 272 to 273 °C. In data set [1], the IC50 (commonly the concentration needed to halve the response being measured) amounted to 51.9 nM.

In turn, `COC(=O)c1cnn(C)c1C(=O)Nc1ccn2nc(-c3ccccc3)nc2c1` [Example 1, methyl 1-methyl-5-(2-phenyl-[1,2,4]triazolo[1,5-a]pyridin-7-ylcarbamoyl)-1H-pyrazole-4-carboxylate] gave a melting point of 243 to 247 °C. Further, the IC50 in data set [1] came to 14.6 nM.

Take `Cn1ncc(C(=O)O)c1C(=O)Nc1ccn2nc(-c3ccccc3)nc2c1` [Example 2, 1-Methyl-5-(2-phenyl-[1,2,4]triazolo[1,5-a]pyridin-7-ylcarbamoyl)-1H-pyrazole-4-carboxylic acid]: the melting point was greater than 300 °C. Moreover, in data set [1], the half-maximal inhibitory concentration (IC50) was 24.9 nM.

The compound `Cn1ncc(C(=O)N2CCC2)c1C(=O)Nc1ccn2nc(-c3ccccc3)nc2c1` [Example 3, 4-(Azetidine-1-carbonyl)-2-methyl-2H-pyrazole-3-carboxylic acid (2-phenyl-[1,2,4]triazolo[1,5-a]pyridin-7-yl)-amide] came in with a melting point of 243 to 245 °C. Besides, the IC50 in data set [1] is 0.71 nM.

Take `COCCN(C)C(=O)c1cnn(C)c1C(=O)Nc1ccn2nc(-c3ccccc3)nc2c1` [Example 4, N4-(2-methoxyethyl)-N4,1-dimethyl-N5-(2-phenyl-[1,2,4]triazolo[1,5-a]pyridin-7-yl)-1H-pyrazole-4,5-dicarboxamide]: the melting point lay in the range of 172 to 175 °C. Besides, in data set [1], the IC50 was found to be 0.28 nM.

Compound `CCN(C)C(=O)c1cnn(C)c1C(=O)Nc1ccn2nc(-c3ccccc3)nc2c1` [Example 5, N4-ethyl-N4,1-dimethyl-N5-(2-phenyl-[1,2,4]triazolo[1,5-a]pyridin-7-yl)-1H-pyrazole-4,5-dicarboxamide] came in with a melting point of 193 to 194 °C. Also, in data set [1], the IC50 came to 0.5 nM.

Compound `CCNC(=O)c1cnn(C)c1C(=O)Nc1ccn2nc(-c3ccccc3)nc2c1` [Example 7, N4-ethyl-1-methyl-N5-(2-phenyl-[1,2,4]triazolo[1,5-a]pyridin-7-yl)-1H-pyrazole-4,5-dicarboxamide] had a melting point of 253 to 255 °C. Further, in data set [1], the IC50 amounted to 1.63 nM.

Regarding `Cn1ncc(C(=O)N2CCC2)c1C(=O)Nc1ccn2nc(N3CCOCC3)nc2c1` [Example 8, 4-(Azetidine-1-carbonyl)-1-methyl-N-(2-morpholino-[1,2,4]triazolo[1,5-a]pyridin-7-yl)-1H-pyrazole-5-carboxamide], the melting point was in the range of 232 to 234 °C. Moreover, the IC50 in data set [1] was 1.88 nM.

As for `Cc1c(NC(=O)c2c(C(=O)N3CCC3)cnn2C)ccn2nc(-c3ccccc3)nc12` [Example 9, 4-(Azetidine-1-carbonyl)-1-methyl-N-(8-methyl-2-phenyl-[1,2,4]triazolo[1,5-a]pyridin-7-yl)-1H-pyrazole-5-carboxamide], the melting point was in the range of 243 to 245 °C. In addition, the IC50 in data set [1] is 16.3 nM.

As for `Cc1cn2nc(-c3ccccc3)nc2cc1NC(=O)c1c(C(=O)N2CCC2)cnn1C` [Example 10, 4-(Azetidine-1-carbonyl)-1-methyl-N-(6-methyl-2-phenyl-[1,2,4]triazolo[1,5-a]pyridin-7-yl)-1H-pyrazole-5-carboxamide], the melting point lay in the range of 226 to 228 °C. In addition, the IC50 in data set [1] came to 0.19 nM.

Compound `CN(C)C(=O)c1cnn(C)c1C(=O)Nc1ccn2nc(-c3ccccc3)nc2c1` [Example 11, 2-Methyl-2H-pyrazole-3,4-dicarboxylic acid 4-dimethylamide 3-[(2-phenyl-[1,2,4]triazolo[1,5-a]pyridin-7-yl)-amide]] came in with a melting point greater than 250 °C. Moreover, the IC50 in data set [1] is 0.9 nM.

Turning to `Cn1ncc(C(=O)N2CCCC2)c1C(=O)Nc1ccn2nc(-c3ccccc3)nc2c1` [Example 13, 1-Methyl-N-(2-phenyl-[1,2,4]triazolo[1,5-a]pyridin-7-yl)-4-(pyrrolidine-1-carbonyl)-1H-pyrazole-5-carboxamide], the melting point lay within 210 to 215 °C. The 50% inhibitory concentration (IC50) in data set [1] was found to be 0.13 nM.

In turn, `Cn1ncc(C(=O)N[C@H]2CCOC2)c1C(=O)Nc1ccn2nc(-c3ccccc3)nc2c1` [Example 14, (S)-1-Methyl-N5-(2-phenyl-[1,2,4]triazolo[1,5-a]pyridin-7-yl)-N4-(tetrahydrofuran-3-yl)-1H-pyrazole-4,5-dicarboxamide] came in with a melting point greater than 250 °C. Also, in data set [1], the concentration for half-maximal inhibition (IC50) turned out to be 12.4 nM.

Compound `Cn1ncc(C(=O)N[C@@H]2CCOC2)c1C(=O)Nc1ccn2nc(-c3ccccc3)nc2c1` [Example 15, (R)-1-Methyl-N5-(2-phenyl-[1,2,4]triazolo[1,5-a]pyridin-7-yl)-N4-(tetrahydrofuran-3-yl)-1H-pyrazole-4,5-dicarboxamide] gave a melting point greater than 250 °C. Further, the IC50 in data set [1] turned out to be 4.85 nM.

`COCCCNC(=O)c1cnn(C)c1C(=O)Nc1ccn2nc(-c3ccccc3)nc2c1` [Example 16, N4-(3-Methoxypropyl)-1-methyl-N5-(2-phenyl-[1,2,4]triazolo[1,5-a]pyridin-7-yl)-1H-pyrazole-4,5-dicarboxamide] had a melting point of 191 to 193 °C. Also, the IC50 in data set [1] amounted to 2.34 nM.

In turn, `Cn1ncc(C(=O)NC2COC2)c1C(=O)Nc1ccn2nc(-c3ccccc3)nc2c1` [Example 17, 1-Methyl-N4-(oxetan-3-yl)-N5-(2-phenyl-[1,2,4]triazolo[1,5-a]pyridin-7-yl)-1H-pyrazole-4,5-dicarboxamide] gave a melting point greater than 250 °C. Moreover, the IC50 in data set [1] was found to be 11.8 nM.

Turning to `CCN(CC)C(=O)c1cnn(C)c1C(=O)Nc1ccn2nc(-c3ccccc3)nc2c1` [Example 18, N4,N4-diethyl-1-methyl-N5-(2-phenyl-[1,2,4]triazolo[1,5-a]pyridin-7-yl)-1H-pyrazole-4,5-dicarboxamide], the melting point is 177 to 179 °C. In data set [1], the IC50 is 0.25 nM.

In the case of `CC(C)NC(=O)c1cnn(C)c1C(=O)Nc1ccn2nc(-c3ccccc3)nc2c1` [Example 19, N4-isopropyl-1-methyl-N5-(2-phenyl-[1,2,4]triazolo[1,5-a]pyridin-7-yl)-1H-pyrazole-4,5-dicarboxamide], the melting point was greater than 250 °C. Besides, the IC50 in data set [1] was 5.38 nM.

`Cc1ccc(CN(C)C(=O)c2cnn(C)c2C(=O)Nc2ccn3nc(-c4ccccc4)nc3c2)cn1` [Example 20, N4,1-dimethyl-N4-((6-methylpyridin-3-yl)methyl)-N5-(2-phenyl-[1,2,4]triazolo[1,5-a]pyridin-7-yl)-1H-pyrazole-4,5-dicarboxamide] came in with a melting point of 110 to 150 °C. Moreover, the IC50 in data set [1] worked out at 1.24 nM.

Consider `Cn1ncc(C(=O)N2CCS(=O)(=O)CC2)c1C(=O)Nc1ccn2nc(-c3ccccc3)nc2c1` [Example 22, 4-(1,1-Dioxo-thiomorpholine-4-carbonyl)-2-methyl-2H-pyrazole-3-carboxylic acid (2-phenyl-[1,2,4]triazolo[1,5-a]pyridin-7-yl)-amide], for which the melting point is greater than 250 °C. Besides, the IC50 in data set [1] amounted to 9.01 nM.

For `CNC(=O)c1cnn(C)c1C(=O)Nc1ccn2nc(-c3ccccc3)nc2c1` [Example 23, N4,1-dimethyl-N5-(2-phenyl-[1,2,4]triazolo[1,5-a]pyridin-7-yl)-1H-pyrazole-4,5-dicarboxamide], the melting point was greater than 250 °C. For the same compound, the IC50 in data set [1] turned out to be 4.25 nM.

With `COC1CN(C(=O)c2cnn(C)c2C(=O)Nc2ccn3nc(-c4ccccc4)nc3c2)C1` [Example 24, 4-(3-Methoxyazetidine-1-carbonyl)-1-methyl-N-(2-phenyl-[1,2,4]triazolo[1,5-a]pyridin-7-yl)-1H-pyrazole-5-carboxamide], the melting point was 269 to 270 °C. Also, the IC50 in data set [1] is 21.5 nM.

In the case of `Cn1ncc(C(=O)N2CCOCC2)c1C(=O)Nc1ccn2nc(-c3ccccc3OCCF)nc2c1` [Example 131, 2-Methyl-4-(morpholine-4-carbonyl)-2H-pyrazole-3-carboxylic acid {2-[2-(2-fluoro-ethoxy)-phenyl]-[1,2,4]triazolo[1,5-a]pyridin-7-yl}-amide], in data set [1], the IC50 was 0.9 nM.

For `COCCN(C)C(=O)c1cnn(C)c1C(=O)Nc1ccn2nc(-c3ccccc3OCCF)nc2c1` [Example 132, 2-Methyl-2H-pyrazole-3,4-dicarboxylic acid 3-({2-[2-(2-fluoro-ethoxy)-phenyl]-[1,2,4]triazolo[1,5-a]pyridin-7-yl}-amide) 4-[(2-methoxy-ethyl)-methyl-amide]], in data set [1], the IC50 was 1.02 nM.

On to `Cn1ncc(C(=O)N2CCOCC2)c1C(=O)Nc1ccn2nc(N3CCCC3=O)nc2c1` [Example 133, Methyl-4-(morpholine-4-carbonyl)-N-(2-(2-oxopyrrolidin-1-yl)-[1,2,4]triazolo[1,5-a]pyridin-7-yl)-1H-pyrazole-5-carboxamide], for which the IC50 in data set [1] was found to be 16.1 nM.
